Species: Rattus norvegicus
Assay: DrugMatrix - Regimen: Daily Repeat
Assay type: toxicity, organism-based, Sprague-Dawley
Design: regimen Daily Repeat, gender Male, age 6-8 weeks
Conditions: in vivo, po, route oral GAVAGE, vehicle .5 % CMC; for ABSOLUTE BASOPHIL / ABSOLUTE EOSINOPHIL / ABSOLUTE LYMPHOCYTE / ABSOLUTE MONOCYTE / ABSOLUTE SEGMENTED NEUTROPHIL / BASOPHIL / EOSINOPHIL / ERYTHROCYTE COUNT / HEMATOCRIT / HEMOGLOBIN / LEUKOCYTE COUNT / LYMPHOCYTE / MEAN CORPUSCULAR HEMOGLOBIN / MEAN CORPUSCULAR HEMOGLOBIN CONCENTRATION / MEAN CORPUSCULAR VOLUME / MONOCYTE / NEUTROPHIL / NUCLEATED RED BLOOD CELLS / PLATELET COUNT: tissue Blood; for ALANINE AMINOTRANSFERASE / ALBUMIN / ALKALINE PHOSPHATASE / ASPARTATE AMINOTRANSFERASE / BLOOD UREA NITROGEN / CARBON DIOXIDE / CHLORIDE / CHOLESTEROL / CREATINE PHOSPHOKINASE / CREATININE / GLUCOSE / LACTATE DEHYDROGENASE / LIPASE / PHOSPHORUS / POTASSIUM / SODIUM / TOTAL BILIRUBIN / TOTAL PROTEIN / URIC ACID: tissue Plasma
[1] = 4.5 mg/kg, 120 h, dose level Low, time 5 day
[2] = 10 mg/kg, 72 h, dose level High, time 3 day
[3] = 10 mg/kg, 120 h, dose level High, time 5 day

CC(C(=O)O)c1ccc(-c2ccccc2)c(F)c1 (centres undefined) [FLURBIPROFEN]
ABSOLUTE BASOPHIL [1]: 0 CELLS/uL
ABSOLUTE EOSINOPHIL [1]: 147.67 CELLS/uL
ABSOLUTE LYMPHOCYTE [1]: 17510 CELLS/uL
ABSOLUTE MONOCYTE [1]: 77.67 CELLS/uL
ABSOLUTE SEGMENTED NEUTROPHIL [1]: 4798 CELLS/uL
BASOPHIL [1]: 0%
EOSINOPHIL [1]: 0.67%
ERYTHROCYTE COUNT [1]: 5.45 x10E6/uL
HEMATOCRIT [1]: 34.47%
HEMOGLOBIN [1]: 12.83 G/DL
LEUKOCYTE COUNT [1]: 22.53 x10E3/uL
LYMPHOCYTE [1]: 77.67%
MEAN CORPUSCULAR HEMOGLOBIN [1]: 23.53 pg
MEAN CORPUSCULAR HEMOGLOBIN CONCENTRATION [1]: 37.23 G/DL
MEAN CORPUSCULAR VOLUME [1]: 63.2 fL
MONOCYTE [1]: 0.33%
NEUTROPHIL [1]: 21.33%
NUCLEATED RED BLOOD CELLS [1]: 0 /100WBC
PLATELET COUNT [1]: 1825.67 x10E3/uL
ALANINE AMINOTRANSFERASE [1]: 45.67 u/L
ALBUMIN [1]: 3.93 G/DL
ALKALINE PHOSPHATASE [1]: 223.33 u/L
ASPARTATE AMINOTRANSFERASE [1]: 67.33 u/L
BLOOD UREA NITROGEN [1]: 14.67 mg/dL
CARBON DIOXIDE [1]: 27.67 mmol/L
CHLORIDE [1]: 100 MEQ/L
CHOLESTEROL [1]: 64.33 mg/dL
CREATINE PHOSPHOKINASE [1]: 204.67 u/L
CREATININE [1]: 0.18 mg/dL
GLUCOSE [1]: 162.67 mg/dL
LACTATE DEHYDROGENASE [1]: 109.33 u/L
LIPASE [1]: 8.67 u/L
PHOSPHORUS [1]: 11.9 mg/dL
POTASSIUM [1]: 6.47 MEQ/L
SODIUM [1]: 143.53 MEQ/L
TOTAL BILIRUBIN [1]: 0.17 mg/dL
TOTAL PROTEIN [1]: 5.73 G/DL
URIC ACID [1]: 2.47 mg/dL
ABSOLUTE BASOPHIL [2]: 0 CELLS/uL
ABSOLUTE EOSINOPHIL [2]: 156 CELLS/uL
ABSOLUTE LYMPHOCYTE [2]: 13184.67 CELLS/uL
ABSOLUTE MONOCYTE [2]: 124.67 CELLS/uL
ABSOLUTE SEGMENTED NEUTROPHIL [2]: 3134.67 CELLS/uL
BASOPHIL [2]: 0%
EOSINOPHIL [2]: 1%
ERYTHROCYTE COUNT [2]: 4.13 x10E6/uL
HEMATOCRIT [2]: 25.13%
HEMOGLOBIN [2]: 10 G/DL
LEUKOCYTE COUNT [2]: 16.6 x10E3/uL
LYMPHOCYTE [2]: 79.67%
MEAN CORPUSCULAR HEMOGLOBIN [2]: 24.27 pg
MEAN CORPUSCULAR HEMOGLOBIN CONCENTRATION [2]: 39.83 G/DL
MEAN CORPUSCULAR VOLUME [2]: 61.07 fL
MONOCYTE [2]: 0.67%
NEUTROPHIL [2]: 18.67%
NUCLEATED RED BLOOD CELLS [2]: 0 /100WBC
PLATELET COUNT [2]: 1131.67 x10E3/uL
ALANINE AMINOTRANSFERASE [2]: 16 u/L
ALBUMIN [2]: 2.13 G/DL
ALKALINE PHOSPHATASE [2]: 132.67 u/L
ASPARTATE AMINOTRANSFERASE [2]: 50 u/L
BLOOD UREA NITROGEN [2]: 12 mg/dL
CARBON DIOXIDE [2]: 23 mmol/L
CHLORIDE [2]: 104.33 MEQ/L
CHOLESTEROL [2]: 60 mg/dL
CREATINE PHOSPHOKINASE [2]: 459.67 u/L
CREATININE [2]: 0.11 mg/dL
GLUCOSE [2]: 149.33 mg/dL
LACTATE DEHYDROGENASE [2]: 200.33 u/L
LIPASE [2]: 7.33 u/L
PHOSPHORUS [2]: 10.17 mg/dL
POTASSIUM [2]: 6.66 MEQ/L
SODIUM [2]: 141.47 MEQ/L
TOTAL BILIRUBIN [2]: 0 mg/dL
TOTAL PROTEIN [2]: 3.97 G/DL
URIC ACID [2]: 1.6 mg/dL
ABSOLUTE BASOPHIL [3]: 0 CELLS/uL
ABSOLUTE EOSINOPHIL [3]: 295.67 CELLS/uL
ABSOLUTE LYMPHOCYTE [3]: 12633.33 CELLS/uL
ABSOLUTE MONOCYTE [3]: 394 CELLS/uL
ABSOLUTE SEGMENTED NEUTROPHIL [3]: 4310.33 CELLS/uL
BASOPHIL [3]: 0%
EOSINOPHIL [3]: 2%
ERYTHROCYTE COUNT [3]: 4.56 x10E6/uL
HEMATOCRIT [3]: 28.67%
HEMOGLOBIN [3]: 11 G/DL
LEUKOCYTE COUNT [3]: 17.63 x10E3/uL
LYMPHOCYTE [3]: 68.33%
MEAN CORPUSCULAR HEMOGLOBIN [3]: 24.17 pg
MEAN CORPUSCULAR HEMOGLOBIN CONCENTRATION [3]: 38.37 G/DL
MEAN CORPUSCULAR VOLUME [3]: 62.97 fL
MONOCYTE [3]: 1.67%
NEUTROPHIL [3]: 28%
NUCLEATED RED BLOOD CELLS [3]: 0.33 /100WBC
PLATELET COUNT [3]: 1559.67 x10E3/uL
ALANINE AMINOTRANSFERASE [3]: 29 u/L
ALBUMIN [3]: 2.7 G/DL
ALKALINE PHOSPHATASE [3]: 259.67 u/L
ASPARTATE AMINOTRANSFERASE [3]: 105.67 u/L
BLOOD UREA NITROGEN [3]: 16 mg/dL
CARBON DIOXIDE [3]: 25 mmol/L
CHLORIDE [3]: 100.67 MEQ/L
CHOLESTEROL [3]: 63.33 mg/dL
CREATINE PHOSPHOKINASE [3]: 164.67 u/L
CREATININE [3]: 0.13 mg/dL
GLUCOSE [3]: 140.33 mg/dL
LACTATE DEHYDROGENASE [3]: 138 u/L
LIPASE [3]: 8.33 u/L
PHOSPHORUS [3]: 11.9 mg/dL
POTASSIUM [3]: 6.44 MEQ/L
SODIUM [3]: 142.2 MEQ/L
TOTAL BILIRUBIN [3]: 0.1 mg/dL
TOTAL PROTEIN [3]: 5.03 G/DL
URIC ACID [3]: 1.63 mg/dL
